Test results from paper PMC11091220, “Metabolism-driven in vitro/in vivo disconnect of an oral ERɑ VHL-PROTAC” (Communications Biology, 2024).
Where “and” joins values, the source holds several entries; their conditions need not be identical. Identical values can stand only once.

Key:
[1] = tested on: PR expression; experiment: ER agonism: PR expression in Ishikawa cells by western blot; format: cell-based
Protocol: Fig. 8 Evidence of ER agonism of AZ’6421 and compound 8 in vitro and in vivo. a 100 nM compound or 10 nM estradiol (E2) were incubated with Ishikawa cells for 48 h and lysates measured for PR expression by western blot. b Normalised rat uterine weight shown as % change from respective vehicle control after 4 days dosing. c Representative H&E stained images taken from sections of uterine horn after 4 days of dosing. d Total plasma exposure of AZ’6421 and its metabolite 8 following dosing of 100 mg/kg BID or 30 mg/kg BID AZ’6421. Plasma samples were taken 4 hr after the 4th dose, at the same time as the uterus was weighed and sectioned for H&E staining.
(§1) Cells were seeded into 12-well tissue culture-treated plates at 0.5 x 10^6 cells/well in phenol red-free RPMI containing 5% (v/v) charcoal-stripped FBS (F6765, Sigma) and left to adhere overnight. In experiments to detect agonism or for SILAC experiments, FBS was double stripped using activated charcoal. Cells were treated with compound or 0.1% DMSO vehicle control for the times indicated prior to being lysed in Pierce RIPA buffer (Thermo Scientific), supplemented with protease and phosphatase inhibitors. Expression levels of proteins were determined by standard western blotting techniques (BioRad 4%-12% Bis-Tris gels). Antibodies were diluted in 5% milk-PBS-Tween and protein levels were detected using Pierce WestDura chemiluminescent reagents followed by visualisation and quantification on a Syngene ChemiGenius Imager. Where blots were quantified, protein levels were normalised to beta-actin or vinculin control and expressed as % of vehicle control.

[2] = tested on: uterus; experiment: Immature female rat model, uterine weight and histology; format: in vivo
Description: Some endocrine therapies, such as tamoxifen, have been reported to display weak agonistic activity in the endometrium due to altered cofactor recruitment and subsequent activation of gene transcription. We therefore sought to test whether AZ’6421 was a complete antagonist or could act as a partial agonist, in both in vitro and in vivo models. […] Plasma samples were taken 4 hr after the 4th dose, at the same time as the uterus was weighed and sectioned for H&E staining. To further explore whether AZ’6421 may be acting as an agonist in vivo, morphological changes of the uterine were examined: uterine horns were formalin-fixed paraffin-embedded, stained with haematoxylin and eosin and then transverse sections of uterus examined.

[3] = molecular target: T1, ERα (Homo sapiens, UniProt P03372); experiment: Western blot analysis of ERα in MCF7 cells (dose response, MG132, VHL ligand and cpd 8 competition); format: cell-based; details: MCF7
T1 construct: endogenous in cells; host or cells: MCF7 (also MCF7 engineered to express Cas9)
T1 sequence (P03372 1-595): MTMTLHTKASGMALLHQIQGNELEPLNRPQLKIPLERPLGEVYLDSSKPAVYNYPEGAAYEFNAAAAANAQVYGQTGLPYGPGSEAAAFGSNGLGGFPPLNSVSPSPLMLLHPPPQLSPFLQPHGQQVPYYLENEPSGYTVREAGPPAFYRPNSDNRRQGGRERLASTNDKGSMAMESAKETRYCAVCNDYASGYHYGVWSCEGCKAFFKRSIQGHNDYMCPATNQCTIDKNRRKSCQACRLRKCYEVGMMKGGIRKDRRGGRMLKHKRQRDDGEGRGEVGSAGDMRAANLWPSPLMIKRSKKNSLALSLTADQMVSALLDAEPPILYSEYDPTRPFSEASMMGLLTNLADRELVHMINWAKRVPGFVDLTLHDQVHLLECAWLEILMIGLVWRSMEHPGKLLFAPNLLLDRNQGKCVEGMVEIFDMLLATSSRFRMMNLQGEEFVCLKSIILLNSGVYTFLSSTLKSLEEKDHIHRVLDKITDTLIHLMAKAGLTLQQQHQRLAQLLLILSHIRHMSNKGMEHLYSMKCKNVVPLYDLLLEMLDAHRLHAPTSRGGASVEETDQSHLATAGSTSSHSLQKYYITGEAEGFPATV
Protocol: Fig. 2 AZ’6421 degrades ERα through a PROTAC mechanism of action. a Immunoblots for ERα and vinculin loading control. MCF7 cells were pre-treated with 10 µM MG132 or DMSO control for 1 h before being exposed to DMSO, AZ’6421, or fulvestrant, at the concentrations indicated, for a further 7 h. A representative immunoblot from two biological replicates is shown. b As in a but cells were pre-treated with 10 µM VHL ligand (Ac-(S,R,S)-AHPC) prior to addition of DMSO, AZ’6421 or fulvestrant. c MCF7 cells expressing BFP-Cas9 were reverse transfected with the crRNA:tracrRNA pool targeting VHL for 72 h prior to treatment with increasing concentrations of AZ’6421 for a further 24 h. Cells were then fixed, stained, and imaged to assess ERα and Cas9 expression. ERα levels in Cas9 positive cells were normalised to unedited cells (0) and ESR1 KO cells (-100). Data points are from three independent experiments, points in bold represent the mean. d Structure of AZ’6421 and the (S)-prolinol epimer, 7. e Concentration-response curves for AZ’6421 and 7. ERα levels in MCF7 cells were assessed using an immunofluorescence endpoint after 24 h exposure to compound. […] Data points are from 5 (AZ'6421) or 2 (Cpd 7) independent experiments with technical duplicates performed for each experiment, bold points represent the mean. All concentration-response curves were plotted using nonlinear regression analysis in GraphPad Prism.
Fig. 6 Assessment of the cause of the in vitro/in vivo disconnect. a CTC174 tumours were disaggregated into single cells, seeded in 6-well plates and dosed with increasing concentrations of AZ’6421 for 24 hours before being lysed. ERα levels were assessed by immunoblotting. ERɑ levels normalised to vinculin and expressed as % DMSO control are shown underneath the immunoblot. b Representative IHC images taken from sections of tumour treated with vehicle control or 100 mg/kg AZ’6421 for 4 days. Sections were stained with an antibody against ERα (Sp1, Ventana). c Schematic of potential sites of metabolism d Free plasma exposure of AZ’6421 and its metabolite 8 following 100 mg/kg dosing of AZ’6421. e Concentration-response curves for AZ’6421 and metabolite 8. ERα levels in MCF7 cells were assessed using an immunofluorescence endpoint after 24 h exposure to compound. […] Points in bold represent the mean. f Effect of metabolite 8 on ERα degradation in CTC174 cells cultured ex vivo. […] MCF7 cells were pre-treated with 10 µM cpd 8 or DMSO control for 1 h before being exposed to DMSO, AZ’6421 or fulvestrant, at the concentrations indicated, for a further 24 h. A representative immunoblot from two biological replicates is shown. TEXT PRINTED IN THE PICTURE: (a) AZ'6421: ERα % of DMSO control: 20.3 (1 nM); ERα % of DMSO control: 12.0 (10 nM); ERα % of DMSO control: 4.1 (30 nM); ERα % of DMSO control: 4.2 (100 nM); ERα % of DMSO control: 3.9 (300 nM); ERα % of DMSO control: 3.6 (1000 nM)
as §1

[4] = molecular target: T1, ERα; experiment: SILAC pulse-chase and mass spectrometry, ERα turnover in MCF7 cells; format: cell-based; details: 1 µM
Protocol: MCF7 cells were grown for a minimum of 2 passages in SILAC media (Pierce, Thermo Scientific) containing ^13C6^15N4 arginine and ^13C6 lysine. The extent of stable isotope incorporation was determined by mass spectrometry. For the assay, cells were plated at 1.2 x 10^6 cells/well into 6-well TC-treated plates in media containing 5% double charcoal stripped FBS^13,C6^15N4 arginine and ^13C6^15N2 lysine for 24 hours. At time 0, the media containing isotopically heavy arginine and lysine was replaced with media containing unlabelled equivalents plus either AZ’6421, fulvestrant or DMSO control. […] Equal concentrations of timecourse lysates were mixed with an internal standard lysate derived from ^[…] lysine labelled MCF7 cells. ER protein was immunoprecipitated overnight at 4 °C with an ER antibody (Rabbit clone SP1, Thermo Scientific) and immobilised onto a U-bottomed Nunc MaxiSorp plate (Thermo Scientific). Wells were sequentially washed with each of the following; RIPA buffer, PBS and water. Samples were digested by addition of 30 μL well sequencing grade trypsin (Promega) in 50 mM ammonium bicarbonate at 37 °C for a minimum of 16 hours. The resultant peptide samples were acidified and analysed by selected reaction monitoring (SRM) mass spectrometry. Protein half-life was determined using the one-phase exponential decay function in GraphPad PRISM where Y = (Y0 - Plateau)*exp(-K*X) + Plateau.

[5] = molecular target: T1, ERα; experiment: Hypoxia studies, ERα degradation in MCF7 cells; format: cell-based; details: 100 nM
Protocol: MCF7 cells were seeded into 12-well tissue culture-treated plates at 0.5x10^6 cells/well in phenol red-free RPMI media containing 5% (volume/volume [v/v]) charcoal-stripped FBS (F6765, Sigma) and left to adhere overnight. The hypoxia-treated plates were transferred to a Thermo Heracell 150 Tri-gas Incubator set at 2% O2 and allowed to equilibrate to the lower oxygen level overnight. Cells were treated with compound or 0.1% DMSO vehicle control for 48 hours prior to being lysed in Pierce RIPA buffer (Thermo Scientific), supplemented with protease and phosphatase inhibitors. Lysis was carried out immediately after removal from the Tri-gas incubator to prevent the rapid degradation of HIF1α on re-exposure to the higher oxygen levels. Protein expression was determined by standard western blotting procedures as described above.

uterine epithelium morphology (H&E) ([2]; immature female rat, 4 days dosing)	effect of MG132 pre-treatment on ERα degradation ([3]; 10 µM MG132 1 h, then compound 7 h)	effect of excess acetylated-(S,R,S)-AHPC pre-treatment on ERα degradation ([3]; 10 µM VHL ligand)	% heavy (ERα heavy peptide) ([4]; Time 0, MCF7)	% heavy (ERα heavy peptide) ([4]; Time 0.5)	% heavy (ERα heavy peptide) ([4]; Time 1)	% heavy (ERα heavy peptide) ([4]; Time 2)	% heavy (ERα heavy peptide) ([4]; Time 4)	% heavy (ERα heavy peptide) ([4]; Time 7)	% heavy (ERα heavy peptide) ([4]; Time 24)	% heavy (ERα heavy peptide) ([4]; Time 48)	ERa levels (% of vehicle control) ([5]; Hypoxic)	ERa levels (% of vehicle control) ([5]; Normoxic)	SMILES	PR expression (% vs 10 nM E2) ([1]; 100 nM compound, individual replicates)	PR expression in the Ishikawa endometrial cell line ([1]; 100 nM, 48 h)	Uterine weight normalised to body weight (% vehicle) ([2]; 5 mg/kg, individual animals)
low columnar uterine epithelium	–	–	–	–	–	–	–	–	–	–	–	–	C[C@@H]1Cc2c([nH]c3ccccc23)[C@@H](c2c(F)cc(/C=C/C(=O)O)cc2F)N1CC(C)(C)F [AZD9496, (E)-3-(3,5-Difluoro-4-((1R,3R)-2-(2-fluoro-2-methylpropyl)-3-methyl-2,3,4,9-tetra hydro-1H-pyrido[3,4-b]indol-1-yl)phenyl)acrylic Acid, reference compound]	5.08% and 7%	induced PR expression	178.44% and 156.17% and 157.43% and 195.46% and 128.27%
–	attenuated ERα degradation	had no effect	100.0%	39.1% and 49.6% and 42.4%	29.7% and 37.1% and 33.5%	20.8% and 29.3% and 28.1%	10.9% and 15.5% and 18.5%	5.3% and 6.8% and 7.7%	4.3% and 6.1%	4.6% and 6.1% and 3.9%	5.829%	10.860%	C[C@]12CC[C@@H]3c4ccc(O)cc4C[C@@H](CCCCCCCCC[S+]([O-])CCCC(F)(F)C(F)(F)F)[C@H]3[C@@H]1CC[C@@H]2O (stereo partly shown) [fulvestrant, reference compound]	–	–	–
